From patent US20250214951A1, “3-PHENYLISOXAZOLE DERIVATIVE, AND PHARMACEUTICAL COMPOSITION FOR PREVENTING OR TREATING EYE DISEASE, CONTAINING SAME AS ACTIVE INGREDIENT” (VASTHERA CO., LTD., priority 2022, published 2025)

Legend:
[1] = tested on: p62 protein phosphorylated at serine 349 (p-p62 (S349)); test: Autophagy activation by increase of p-p62 (S349), Western immunoblotting; assay type: cell-based, human; conditions: indicated concentrations; FIG. 14
Protocol: The cells were treated with the test compounds at the indicated concentrations, and the autophagy activation effect through the increase of p62 protein (p-p62 (S349)) phosphorylated at serine 349 residue was measured by Western immunoblotting using an anti-p-p62 antibody, and the results are shown in FIG. 14. The increase in the intracellular P-p62 ([…]) level is one of the major indicators of autophagy activation.

[2] = tested on: A2E-BDP present in human retinal pigment epithelial cells (ARPE-19); test: Screening of ability to remove A2E-fluorescent labeling substance (A2E-BDP), lysate fluorescence; assay type: cell-based; conditions: ARPE-19, 24 h, ARPE-19 loaded with 10 μM A2E-BDP 24 h, test compound 50 μM once, fluorescence ex 485/em 535 nm, read-out: Capacity (%) to remove A2E-BDP at 50 μM
Protocol: (§1) The human retinal pigment epithelial cell line (ARPE-19) used in the experiment was provided by ATCC (American Type Culture Collection). The ARPE-19 cell line was cultured in DMEM medium containing 10% FBS. After culture, the cells were dispensed into 96-well plates at a concentration of 4×10^3 cells/well and cultured for 24 hours. The ARPE-19 cell line was treated with A2E-fluorescent labeling substance (A2E-BDP) at a concentration of 10 μM for 24 hours to induce the accumulation of A2E-BDP in the ARPE-19 cell line.
(§2) In order to evaluate the intracellular A2E removal ability of the compound of the present invention, an easily detectable A2E-fluorescent labeling substance (A2E-BDP) was used. The ARPE-19 cells prepared by the above method were treated with each test compound at a concentration of 50 μM once, and then cultured for 24 hours. The cells were lysed by adding a cell lysis buffer containing a protease inhibitor (50 mM Tris-chloride, pH 8.0, 150 mM sodium chloride, 1% NP-40, 1% sodium deoxycholate, 1% sodium dodecyl sulfate, and 2 mM ethylenediamine tetraacetic acid) to each 96-well. The prepared cell lysate was transferred to a white 96-well plate, and the fluorescence intensity was measured using a fluorescence microplate reader (VICTOR™ X3, Perkin Elmer, USA) (excitation 485 nm, emission 535 nm).

A2E-BDP in ARPE-19 cells [3] = test: A2E-BDP removal ability by concentration of other example compounds; assay type: cell-based, human; conditions: indicated concentrations; FIG. 13
Protocol: as §1, §2
The A2E-fluorescent labeling substance (A2E-BDP) removal ability was evaluated according to Experimental Example 1 (except that the test compound was treated at the indicated concentration).

A2E-BDP in ARPE-19 cells [4] = test: Removal of A2E-BDP by concentration, fluorescence and phase contrast microscopy; assay type: cell-based, human; conditions: ARPE-19 with A2E-BDP; 10, 25, 50 μM, 24 h; FIG. 1
Protocol: ARPE-19 cell line was dispensed into a 24-well plate at a concentration of 4×10^4 cells/well and cultured for 24 hours. In order to induce A2E-BDP accumulation in ARPE-19 cell line, the cells were treated with […] of 10 μM for 24 hours. The A2E-BDP-containing ARPE-19 cells were treated with compound 17 (10, 25, 50 μM) for 24 hours. The level of A2E-BDP in each cell was measured as a fluorescence image at 510 nm using a Nikon Eclipse Ti—U fluorescence microscope (Tokyo, Japan). In addition, the change in cell number according to compound treatment was observed using a general phase contrast microscope, and the results are shown in FIG. 1. Meanwhile, lutein was used as a control substance.

## COc1ccc(Br)cc1-c1cc(COCc2ccccc2)on1 [Example 11, 5-((benzyloxy)methyl)-3-(5-bromo-2-methoxyphenyl)isoxazole]
[1]
  autophagy activation through increase of p-p62 (S349): activated autophagy in a concentration-dependent manner
[2]
  inhibition at 50 µM: ≥ 60%
A2E-BDP in ARPE-19 cells [3]
  A2E-BDP removal ability by concentration (amount of A2E): concentration-dependent decrease in the amount of A2E

## C=CCc1ccc(OC)c(-c2cc(COCc3ccccc3)on2)c1 [Example 18, 3-(5-allyl-2-methoxyphenyl)-5-((benzyloxy)methyl)isoxazole]
[1]
  autophagy activation through increase of p-p62 (S349): activated autophagy in a concentration-dependent manner
[2]
  inhibition at 50 µM: ≥ 60%
A2E-BDP in ARPE-19 cells [3]
  A2E-BDP removal ability by concentration (amount of A2E): concentration-dependent decrease in the amount of A2E

## COc1ccc(Br)cc1-c1cc(CN2CCN(C(=O)OC(C)(C)C)CC2)on1 [Example 21, tert-butyl 4-((3-(5-bromo-2-methoxyphenyl)isoxazole-5-yl)methyl)piperazine-1-carboxylate]
[1]
  autophagy activation through increase of p-p62 (S349): activated autophagy in a concentration-dependent manner
[2]
  inhibition at 50 µM: ≥ 60%
A2E-BDP in ARPE-19 cells [3]
  A2E-BDP removal ability by concentration (amount of A2E): concentration-dependent decrease in the amount of A2E

## CCCc1ccc(OC)c(-c2cc(CN3CCN(C(=O)OC(C)(C)C)CC3)on2)c1 [Example 26, tert-butyl 4-((3-(2-methoxy-5-propylphenyl)isoxazole-5-yl)methyl)piperazine-1-carboxylate]
[1]
  autophagy activation through increase of p-p62 (S349): activated autophagy in a concentration-dependent manner
[2]
  inhibition at 50 µM: ≥ 60%
A2E-BDP in ARPE-19 cells [3]
  A2E-BDP removal ability by concentration (amount of A2E): concentration-dependent decrease in the amount of A2E

## CC1=C[C@H](O)CC(C)(C)[C@H]1/C=C/C(C)=C/C=C/C(C)=C/C=C/C=C(C)/C=C/C=C(C)/C=C/C1=C(C)C[C@@H](O)CC1(C)C [lutein, reference compound]
A2E-BDP in ARPE-19 cells [4]
  A2E-BDP fluorescence intensity (fluorescence microscope): a decrease in fluorescence intensity was observed
